From patent US7026304B2, “2-alkylated-cyclodextrin derivatives: reversal agents for drug-induced neuromuscular block” (Akzo Nobel N.V., priority 2001, dated 2006)
Where two headings read alike, the source gives them in different places.

Tests used:
[1] = test system: steady-state neuromuscular block induced by the muscle relaxant rocuronium bromide (Roc); test: Reversal of neuromuscular blockade in anaesthetized guinea pigs in vivo; parameters: species or system guinea pig
Procedure: Reversal of Neuromuscular Blockade in Anaesthetized Guinea Pigs in vivo Male Dunkin-Hartley guinea pigs (bodyweight: 600–900 g) were anaesthetized by i.p. administration of 10 mg/kg pentobarbitone and 1000 mg/kg urethane. After tracheotomy, the animals were artificially ventilated using a Harvard small animal ventilator. A catheter was placed into the carotid artery for continuous monitoring of arterial blood pressure and the taking of blood samples for blood gas analysis. Heart rate was derived from the blood pressure signal. The sciatic nerve was stimulated (rectangular pulses of 0.5 ms duration at 10 s (0.1 Hz) intervals at a supramaximal voltage, using a Grass S88 Stimulator) and the force of M. gastrocnemius contractions was measured using a Grass FT03 force-displacement transducer. Contractions, blood pressure and heart rate were recorded on a multichannel Grass 7D recorder. Catheters were placed in both jugular veins. One catheter was used for the continuous infusion of a neuromuscular blocking agent. […] The other catheter was used for administration of increasing doses of the reversal agent. During continuous infusion of the neuromuscular blocking agent, single doses of increasing concentration of reversal agent were given.

[2] = test system: steady-state neuromuscular block induced by the muscle relaxant rocuronium bromide (Roc); conditions: anaesthetized guinea pigs, as already described in WO 01/12202, cited from earlier work
[3] = anaesthetized guinea pigs, rocuronium bromide-induced steady-state block
[4] = anaesthetized guinea pigs, rocuronium bromide-induced steady-state block, dose at which % max reversal was reached
[5] = anaesthetized male Dunkin-Hartley guinea pigs, rocuronium bromide infusion to steady-state block of 85–90%, reversal agent i.v. in increasing doses

Molecule | % max reversal [1, 3] [%] | concentration at maximum reversal [1, 4] | ED50, dose producing 50% reversal of steady-state neuromuscular block [1, 5] [µmol/kg] | other results
O=C([O-])c1ccc(CO[C@H]2[C@H]3O[C@H]4[C@H](O)[C@@H](OCc5ccc(C(=O)[O-])cc5)[C@@H](O[C@H]5[C@H](O)[C@@H](OCc6ccc(C(=O)[O-])cc6)[C@@H](O[C@H]6[C@H](O)[C@@H](OCc7ccc(C(=O)[O-])cc7)[C@@H](O[C@H]7[C@H](O)[C@@H](OCc8ccc(C(=O)[O-])cc8)[C@@H](O[C@H]8[C@H](O)[C@@H](OCc9ccc(C(=O)[O-])cc9)[C@@H](O[C@H]9[C@H](O)[C@@H](OCc%10ccc(C(=O)[O-])cc%10)[C@@H](O[C@H]%10[C@H](O)[C@@H](OCc%11ccc(C(=O)[O-])cc%11)[C@@H](O[C@@H]([C@@H]2O)[C@@H](CO)O3)O[C@@H]%10CO)O[C@@H]9CO)O[C@@H]8CO)O[C@@H]7CO)O[C@@H]6CO)O[C@@H]5CO)O[C@@H]4CO)cc1.[Na+].[Na+].[Na+].[Na+].[Na+].[Na+].[Na+].[Na+] [Example 3, Octakis per-2-O-(4-carboxybenzyl)-γ-cyclodextrin, Na salt] | 97 | (0.8) μmol · kg^−1 | 0.20 | –
O=C([O-])c1ccccc1CO[C@H]1[C@H]2O[C@H]3[C@H](O)[C@@H](OCc4ccccc4C(=O)[O-])[C@@H](O[C@H]4[C@H](O)[C@@H](OCc5ccccc5C(=O)[O-])[C@@H](O[C@H]5[C@H](O)[C@@H](OCc6ccccc6C(=O)[O-])[C@@H](O[C@H]6[C@H](O)[C@@H](OCc7ccccc7C(=O)[O-])[C@@H](O[C@H]7[C@H](O)[C@@H](OCc8ccccc8C(=O)[O-])[C@@H](O[C@H]8[C@H](O)[C@@H](OCc9ccccc9C(=O)[O-])[C@@H](O[C@H]9[C@H](O)[C@@H](OCc%10ccccc%10C(=O)[O-])[C@@H](O[C@@H]([C@@H]1O)[C@@H](CO)O2)O[C@@H]9CO)O[C@@H]8CO)O[C@@H]7CO)O[C@@H]6CO)O[C@@H]5CO)O[C@@H]4CO)O[C@@H]3CO.[Na+].[Na+].[Na+].[Na+].[Na+].[Na+].[Na+].[Na+] [Example 4, Octakis per-2-O-(2-carboxybenzyl)-γ-cyclodextrin, Na salt] | 84 | (15) μmol · kg^−1 | 3.4 | –
O=C([O-])c1ccc(CO[C@H]2[C@H]3O[C@H]4[C@H](O)[C@@H](O)[C@@H](O[C@H]5[C@H](O)[C@@H](O)[C@@H](O[C@H]6[C@H](O)[C@@H](O)[C@@H](O[C@H]7[C@H](O)[C@@H](O)[C@@H](O[C@H]8[C@H](O)[C@@H](O)[C@@H](O[C@H]9[C@H](O)[C@@H](O)[C@@H](O[C@H]%10[C@H](O)[C@@H](O)[C@@H](O[C@@H]([C@@H]2O)[C@@H](CO)O3)O[C@@H]%10CO)O[C@@H]9CO)O[C@@H]8CO)O[C@@H]7CO)O[C@@H]6CO)O[C@@H]5CO)O[C@@H]4CO)cc1.[Na+] [Example 5, Mono-2-O-(4-carboxybenzyl)-γ-cyclodextrin sodium salt] | 96 | (2.6) μmol · kg^−1 | 0.25 | –
O=C([O-])CCSCCCO[C@H]1[C@H]2O[C@H]3[C@H](O)[C@@H](OCCCSCCC(=O)[O-])[C@@H](O[C@H]4[C@H](O)[C@@H](OCCCSCCC(=O)[O-])[C@@H](O[C@H]5[C@H](O)[C@@H](OCCCSCCC(=O)[O-])[C@@H](O[C@H]6[C@H](O)[C@@H](OCCCSCCC(=O)[O-])[C@@H](O[C@H]7[C@H](O)[C@@H](OCCCSCCC(=O)[O-])[C@@H](O[C@H]8[C@H](O)[C@@H](OCCCSCCC(=O)[O-])[C@@H](O[C@H]9[C@H](O)[C@@H](OCCCSCCC(=O)[O-])[C@@H](O[C@@H]([C@@H]1O)[C@@H](CO)O2)O[C@@H]9CO)O[C@@H]8CO)O[C@@H]7CO)O[C@@H]6CO)O[C@@H]5CO)O[C@@H]4CO)O[C@@H]3CO.[Na+].[Na+].[Na+].[Na+].[Na+].[Na+].[Na+].[Na+] [Example 6, Octakis per-2-O-(6-carboxy-4-thia-hexyl)-γ-cyclodextrin, Na salt] | – | – | – | % max reversal ([1]; guinea pig, in vivo): 86%; concentration at maximum reversal ([1]; guinea pig, in vivo): (16) μmol · kg^−1; ED50, dose producing 50% reversal of steady-state neuromuscular block ([1]; guinea pig, in vivo, iv): 3.4 µmol/kg
O=C([O-])CSCCCO[C@H]1[C@H]2O[C@H]3[C@H](O)[C@@H](OCCCSCC(=O)[O-])[C@@H](O[C@H]4[C@H](O)[C@@H](OCCCSCC(=O)[O-])[C@@H](O[C@H]5[C@H](O)[C@@H](OCCCSCC(=O)[O-])[C@@H](O[C@H]6[C@H](O)[C@@H](OCCCSCC(=O)[O-])[C@@H](O[C@H]7[C@H](O)[C@@H](OCCCSCC(=O)[O-])[C@@H](O[C@H]8[C@H](O)[C@@H](OCCCSCC(=O)[O-])[C@@H](O[C@H]9[C@H](O)[C@@H](OCCCSCC(=O)[O-])[C@@H](O[C@@H]([C@@H]1O)[C@@H](CO)O2)O[C@@H]9CO)O[C@@H]8CO)O[C@@H]7CO)O[C@@H]6CO)O[C@@H]5CO)O[C@@H]4CO)O[C@@H]3CO.[Na+].[Na+].[Na+].[Na+].[Na+].[Na+].[Na+].[Na+] [Example 7, Octakis per-2-O-(5-carboxy-4-thia-pentyl)-γ-cyclodextrin, Na salt] | 91 | (10) μmol · kg^−1 | 1.12 | –
O=S(=O)([O-])CCSCCCO[C@H]1[C@H]2O[C@H]3[C@H](O)[C@@H](OCCCSCCS(=O)(=O)[O-])[C@@H](O[C@H]4[C@H](O)[C@@H](OCCCSCCS(=O)(=O)[O-])[C@@H](O[C@H]5[C@H](O)[C@@H](OCCCSCCS(=O)(=O)[O-])[C@@H](O[C@H]6[C@H](O)[C@@H](OCCCSCCS(=O)(=O)[O-])[C@@H](O[C@H]7[C@H](O)[C@@H](OCCCSCCS(=O)(=O)[O-])[C@@H](O[C@H]8[C@H](O)[C@@H](OCCCSCCS(=O)(=O)[O-])[C@@H](O[C@H]9[C@H](O)[C@@H](OCCCSCCS(=O)(=O)[O-])[C@@H](O[C@@H]([C@@H]1O)[C@@H](CO)O2)O[C@@H]9CO)O[C@@H]8CO)O[C@@H]7CO)O[C@@H]6CO)O[C@@H]5CO)O[C@@H]4CO)O[C@@H]3CO.[Na+].[Na+].[Na+].[Na+].[Na+].[Na+].[Na+].[Na+] [Example 8, Octakis per-2-O-(6-sulfo-4-thia-hexyl)-γ-cyclodextrin, Na salt] | 85 | (4.5) μmol · kg^−1 | 1.4 | –
OCC(O)CSCCCO[C@H]1[C@H]2O[C@H]3[C@H](O)[C@@H](OCCCSCC(O)CO)[C@@H](O[C@H]4[C@H](O)[C@@H](OCCCSCC(O)CO)[C@@H](O[C@H]5[C@H](O)[C@@H](OCCCSCC(O)CO)[C@@H](O[C@H]6[C@H](O)[C@@H](OCCCSCC(O)CO)[C@@H](O[C@H]7[C@H](O)[C@@H](OCCCSCC(O)CO)[C@@H](O[C@H]8[C@H](O)[C@@H](OCCCSCC(O)CO)[C@@H](O[C@@H]([C@@H]1O)[C@@H](CO)O2)O[C@@H]8CO)O[C@@H]7CO)O[C@@H]6CO)O[C@@H]5CO)O[C@@H]4CO)O[C@@H]3CO (stereo partly drawn) [Example 9, Heptakis per-2-O-(6,7-dihydroxy-4-thia-heptyl)-β-cyclodextrin] | 93 | (6.4) μmol · kg^−1 | 1.10 | –
OCCOCCSCCCO[C@H]1[C@H]2O[C@H]3[C@H](O)[C@@H](OCCCSCCOCCO)[C@@H](O[C@H]4[C@H](O)[C@@H](OCCCSCCOCCO)[C@@H](O[C@H]5[C@H](O)[C@@H](OCCCSCCOCCO)[C@@H](O[C@H]6[C@H](O)[C@@H](OCCCSCCOCCO)[C@@H](O[C@H]7[C@H](O)[C@@H](OCCCSCCOCCO)[C@@H](O[C@H]8[C@H](O)[C@@H](OCCCSCCOCCO)[C@@H](O[C@@H]([C@@H]1O)[C@@H](CO)O2)O[C@@H]8CO)O[C@@H]7CO)O[C@@H]6CO)O[C@@H]5CO)O[C@@H]4CO)O[C@@H]3CO [Example 10, Heptakis per-2-O-(9-hydroxy-7-oxa-4-thia-nonyl)-β-cyclodextrin] | 72 | (12) μmol · kg^−1 | 5.6 | –
OC[C@H]1O[C@@H]2O[C@H]3[C@H](O)[C@@H](O)[C@@H](O[C@H]4[C@H](O)[C@@H](O)[C@@H](O[C@H]5[C@H](O)[C@@H](O)[C@@H](O[C@H]6[C@H](O)[C@@H](O)[C@@H](O[C@H]7[C@H](O)[C@@H](O)[C@@H](O[C@H]8[C@H](O)[C@@H](O)[C@@H](O[C@H]1[C@H](O)[C@H]2O)O[C@@H]8CO)O[C@@H]7CO)O[C@@H]6CO)O[C@@H]5CO)O[C@@H]4CO)O[C@@H]3CO [β-cyclodextrin] | – | – | – | ED50, dose producing 50% reversal of steady-state neuromuscular block ([2]; parent cyclodextrins for comparison): 20 µmol/kg; % max reversal ([2]; parent cyclodextrins): 93%; dose at maximum reversal ([2]; parent cyclodextrins): (113) μmol · kg^−1
Octakis per-2-O-(3-carboxybenzyl)-γ-cyclodextrin, Na salt [Example 2] | 104 | (4.8) μmol · kg^−1 | 0.38 | –
